Measurements taken from patent US20210163471A1, “PROGRANULIN MODULATORS AND METHODS OF USING THE SAME” (ARKUDA THERAPEUTICS, priority 2017, published 2021).
Read-outs that look alike come from different tables or passages of the source.

Tested on: BV-2 (mouse microglia) cells
Experiment: progranulin secretion from BV-2 cells, mouse progranulin ELISA of conditioned media
Type: cell-based
Conditions: BV-2 cells, 16 hours incubation, 8-point curves starting at 10 μM
Experimental: BV-2 cells are split the day before plating into a 96 well plate format at approximately 80%. Cells should be plated the day before and allowed for 1 hour attachment period and for 16 hour incubation. […] Standard ELISA kits to measure PGRN are available from vendors such as Adipogen, R&D, and Biovendor.
Compound potency was determined by measuring progranulin secretion from BV-2 (mouse microglia) cells. BV-2 cells were grown in RPMI with 2 mM L-glutamine supplemented with 10% fetal bovine serum. On the day of the assay, cells were plated in 96-well plates at a density of 30,000 cells/well in RPMI (Roswell Park Memorial Institute media)/L-glutamine supplemented with 2% Fetal clone serum II (plating media) and left to adhere for 1 hour. Following attachment to the plate, media was replaced with treatment (8-point curves in half-log dilutions starting at 10 μM) in plating media and incubated for 16 hours. Secreted progranulin was measured from a 1:10 dilution of the conditioned media using the R&D Systems mouse progranulin ELISA kit (cat #DY2557) and following the manufacturer's instructions.

[1] = Mus musculus, assay run v1, read-out: PRGN v1 (EC50, progranulin secretion)
[2] = assay run v1, read-out: PRGN v1 (EC50, progranulin secretion)
[3] = Mus musculus, assay run v2 (same protocol, different assay), read-out: PRGN v2 (EC50, progranulin secretion)
[4] = assay run v2 (same protocol, different assay), read-out: PRGN v2 (EC50, progranulin secretion)
[5] = Mus musculus, BV-2, 16 h, assay run v1, read-out: PRGN v1 (EC50, progranulin secretion)

Compound	EC50 [1] [µM]	EC50 [2] [µM]	EC50 [3] [µM]	EC50 [4] [µM]	further results
CS(=O)(=O)c1ccc([C@H]2c3ccccc3CCN2C(=O)O[C@@H]2CN3CCC2CC3)cc1 [Compound 1001, (S)—((S)-quinuclidin-3-yl)-1-(4-(methylsulfonyl)phenyl)-3,4-dihydroisoquinoline-2(1H)-carboxylate]	> 10				
O=C(O[C@@H]1CN2CCC1CC2)N1CCc2ccccc2[C@@H]1c1ccnc(O)c1 [Compound 1002]		> 10			
O=C(O[C@@H]1CN2CCC1CC2)N1CCc2ccccc2[C@H]1c1ccnc(O)c1 [Compound 1003]		> 10			
O=C(O[C@@H]1CN2CCC1CC2)N1CCc2ccccc2[C@@H]1c1ccc(F)cc1 [Compound 1004, (S)—((S)-quinuclidin-3-yl) 1-(4-fluorophenyl)-3,4-dihydroisoquinoline-2(1H)-carboxylate]	0.36		0.43		
O=C(O[C@@H]1CN2CCC1CC2)N1CCc2ccccc2[C@H]1c1ccc(F)cc1 [Compound 1005]	> 7				
O=C(O[C@@H]1CN2CCC1CC2)N1CCc2ccccc2[C@@H]1c1ccc(-n2ccnc2)cc1 [Compound 1006]	5.7				
O=C(O[C@@H]1CN2CCC1CC2)N1CCc2ccccc2[C@H]1c1ccc(-n2ccnc2)cc1 [Compound 1007]	> 10				
COc1cc([C@H]2c3ccccc3CCN2C(=O)O[C@@H]2CN3CCC2CC3)ccn1 [Compound 1008]		> 10			
COc1cc([C@@H]2c3ccccc3CCN2C(=O)O[C@@H]2CN3CCC2CC3)ccn1 [Compound 1009]		> 10			
O=C(O[C@@H]1CN2CCC1CC2)N1CCc2ccccc2[C@@H]1c1ccc(F)c(F)c1 [Compound 1010]	0.92		2.03		
O=C(O[C@@H]1CN2CCC1CC2)N1CCc2ccccc2[C@H]1c1ccc(F)c(F)c1 [Compound 1011]	7.14		8.74		
O=C(O[C@@H]1CN2CCC1CC2)N1CCc2ccccc2[C@@H]1c1ccc(F)cc1F [Compound 1012]		0.44		0.25	
O=C(O[C@@H]1CN2CCC1CC2)N1CCc2ccccc2[C@H]1c1ccc(F)cc1F [Compound 1013]		> 10		1.75	
O=C(O[C@@H]1CN2CCC1CC2)N1CCc2ccccc2[C@H]1c1cccc(F)c1F [Compound 1014]		> 10		4.3	
O=C(O[C@@H]1CN2CCC1CC2)N1CCc2ccccc2[C@@H]1c1cccc(F)c1F [Compound 1015]		0.33		1.11	
O=C1CCCN1c1ccc([C@H]2c3ccccc3CCN2C(=O)O[C@@H]2CN3CCC2CC3)cc1 [Compound 1016]	> 10		> 10		
O=C1CCCN1c1ccc([C@@H]2c3ccccc3CCN2C(=O)O[C@@H]2CN3CCC2CC3)cc1 [Compound 1017]	> 10		> 10		
O=C(O[C@@H]1CN2CCC1CC2)N1CCc2ccccc2[C@@H]1c1ccc(-n2cncn2)cc1 [Compound 1018]	> 10		> 10		
O=C(O[C@@H]1CN2CCC1CC2)N1CCc2ccccc2[C@H]1c1ccc(-n2cncn2)cc1 [Compound 1019]	> 10		> 10		
O=C(O[C@@H]1CN2CCC1CC2)N1CCc2ccccc2[C@@H]1c1cccc(F)c1 [Compound 1020]		1.37		3.55	
O=C(O[C@@H]1CN2CCC1CC2)N1CCc2ccccc2[C@H]1c1cccc(F)c1 [Compound 1021]		> 10		1.03	
O=C(O[C@@H]1CN2CCC1CC2)N1CCc2ccccc2[C@@H]1c1ccc(OC2CC2)cc1 [Compound 1022]	> 10		> 10		
O=C(O[C@@H]1CN2CCC1CC2)N1CCc2ccccc2[C@H]1c1ccc(OC2CC2)cc1 [Compound 1023]	9.53		6.33		
COc1ccc([C@H]2c3ccccc3CCN2C(=O)O[C@@H]2CN3CCC2CC3)cc1 [Compound 1024]		2.87		2.91	

Compound	EC50 [1] [µM]	EC50 [2] [µM]	EC50 [3] [µM]	EC50 [4] [µM]	further results
COc1ccc([C@@H]2c3ccccc3CCN2C(=O)O[C@@H]2CN3CCC2CC3)cc1 [Compound 1025]		4.41		> 10	
O=C1CCC([C@H]2c3ccccc3CCN2C(=O)O[C@@H]2CN3CCC2CC3)CN1 (some centres unmarked) [Compound 1026]		> 10		> 10	
O=C1CCC([C@@H]2c3ccccc3CCN2C(=O)O[C@@H]2CN3CCC2CC3)CN1 (some centres unmarked) [Compound 1027]		9.53		> 10	
COc1ccc([C@H]2c3ccccc3CCN2C(=O)O[C@@H]2CN3CCC2CC3)cn1 [Compound 1028]		> 10		> 10	
COc1ccc([C@@H]2c3ccccc3CCN2C(=O)O[C@@H]2CN3CCC2CC3)cn1 [Compound 1029]		> 10		> 10	
O=C(O[C@@H]1CN2CCC1CC2)N1CCc2ccccc2[C@@H]1CS(=O)(=O)c1ccccc1 [Compound 1030]	> 10		> 10		
O=C(O[C@@H]1CN2CCC1CC2)N1CCc2ccccc2[C@H]1CS(=O)(=O)c1ccccc1 [Compound 1031]	> 10		> 10		
O=C(O[C@@H]1CN2CCC1CC2)N1CCc2ccccc2[C@@H]1c1ccc2ncsc2c1 [Compound 1032]		> 10		7.88	
O=C(O[C@@H]1CN2CCC1CC2)N1CCc2ccccc2[C@H]1c1ccc2ncsc2c1 [Compound 1033]		> 10		> 10	
O=C(O[C@@H]1CN2CCC1CC2)N1CCc2ccccc2[C@@H]1c1ccc2scnc2c1 [Compound 1034]		> 10		5.77	
O=C(O[C@@H]1CN2CCC1CC2)N1CCc2ccccc2[C@H]1c1ccc2scnc2c1 [Compound 1035]		> 10		> 10	
O=C(O[C@@H]1CN2CCC1CC2)N1CCc2ccccc2[C@@H]1c1cc2ccccc2s1 [Compound 1036]		> 3.16		> 10	
O=C(O[C@@H]1CN2CCC1CC2)N1CCc2ccccc2[C@H]1c1cc2ccccc2s1 [Compound 1037]		> 3.16		> 10	
COc1ccc([C@H]2c3ccccc3CCN2C(=O)O[C@@H]2CN3CCC2CC3)cc1F [Compound 1038]				> 10	
COc1ccc([C@@H]2c3ccccc3CCN2C(=O)O[C@@H]2CN3CCC2CC3)cc1F [Compound 1039]				> 10	
O=C(O[C@@H]1CN2CCC1CC2)N1CCc2ccccc2[C@@H]1c1cc(F)cc(F)c1 [Compound 1040]				> 10	
O=C(O[C@@H]1CN2CCC1CC2)N1CCc2ccccc2[C@H]1c1cc(F)cc(F)c1 [Compound 1041]				> 10	
O=C(O[C@@H]1CN2CCC1CC2)N1CCc2ccccc2[C@@H]1c1ccc(-n2cnnc2)cc1 [Compound 1042]			> 10		
O=C(O[C@@H]1CN2CCC1CC2)N1CCc2ccccc2[C@H]1c1ccc(-n2cnnc2)cc1 [Compound 1043]			> 10		
O=C(O[C@@H]1CN2CCC1CC2)N1Cc2ccccc2[C@@H]1c1ccccc1 [Compound 1044]			> 10		
O=C(O[C@@H]1CN2CCC1CC2)N1Cc2ccccc2[C@H]1c1ccccc1 [Compound 1045]			> 10		
O=C(O[C@@H]1CN2CCC1CC2)N1CCc2ccccc2[C@@H]1c1ccc(Cl)cc1 [Compound 1046]	0.34				
O=C(N[C@@H]1CN2CCC1CC2)N1CCc2ccccc2[C@@H]1c1ccccc1 [Compound 1047]					EC50 [5]: 0.7 µM
O=C(C[C@@H]1CN2CCC1CC2)N1CCc2ccccc2[C@@H]1c1ccccc1 [Compound 1048]					EC50 [5]: 0.88 µM
